# From PubChem BioAssay (NCI)
#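 Five concentrations, 48 hours, 96-well plates. At the GI50, growth is halved. Definition used: TGI = concentration required for complete inhibition of growth.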
# What was measured:
# Assay in all cases: NCI-60 cell line screen, 48 h
# HOP-92 NSCLC = test system: HOP-92 NSCLC
# HCT-116 colon = test system: HCT-116 colon
# U251 CNS = test system: U251 CNS
# SK-MEL-28 melanoma = test system: SK-MEL-28 melanoma
# LOX IMVI melanoma = test system: LOX IMVI melanoma
# NCI-H226 lung = test system: NCI-H226 lung
# CAKI-1 renal = test system: CAKI-1 renal
# HCC-2998 colon = test system: HCC-2998 colon
# HS 578T breast = test system: HS 578T breast
# M14 melanoma = test system: M14 melanoma
# MCF7 breast = test system: MCF7 breast
# NCI/ADR-RES ovarian = test system: NCI/ADR-RES ovarian
# HCT-15 colon = test system: HCT-15 colon
# SF-295 CNS = test system: SF-295 CNS
# UACC-62 melanoma = test system: UACC-62 melanoma
# OVCAR-5 ovarian = test system: OVCAR-5 ovarian
# NCI-H522 lung = test system: NCI-H522 lung
# SN12C renal = test system: SN12C renal
# SK-OV-3 ovarian = test system: SK-OV-3 ovarian
# PC-3 prostate = test system: PC-3 prostate
# 786-0 renal = test system: 786-0 renal
# OVCAR-8 ovarian = test system: OVCAR-8 ovarian
# K-562 leukemia = test system: K-562 leukemia
# RPMI-8226 leukemia = test system: RPMI-8226 leukemia
# IGROV1 ovarian = test system: IGROV1 ovarian
# NCI-H23 lung = test system: NCI-H23 lung
# OVCAR-3 ovarian = test system: OVCAR-3 ovarian
# CCRF-CEM leukemia = test system: CCRF-CEM leukemia
# A549 NSCLC = test system: A549 NSCLC
# UO-31 renal = test system: UO-31 renal
# OVCAR-4 ovarian = test system: OVCAR-4 ovarian
# COLO 205 colon = test system: COLO 205 colon
# NCI-H460 lung = test system: NCI-H460 lung
# SF-268 CNS = test system: SF-268 CNS
# T-47D breast = test system: T-47D breast
# DU-145 prostate = test system: DU-145 prostate
# MOLT-4 leukemia = test system: MOLT-4 leukemia
# RXF 393 renal = test system: RXF 393 renal
# SK-MEL-2 melanoma = test system: SK-MEL-2 melanoma
# SNB-19 CNS = test system: SNB-19 CNS
# A498 renal = test system: A498 renal
# SK-MEL-5 melanoma = test system: SK-MEL-5 melanoma
# TK-10 renal = test system: TK-10 renal
# HOP-62 NSCLC = test system: HOP-62 NSCLC
# ACHN renal = test system: ACHN renal
# MDA-MB-435 = test system: MDA-MB-435
# KM12 colon = test system: KM12 colon
# SR leukemia = test system: SR leukemia
# HL-60(TB) leukemia = test system: HL-60(TB) leukemia
# EKVX NSCLC = test system: EKVX NSCLC
# UACC-257 melanoma = test system: UACC-257 melanoma
# MDA-MB-231 breast = test system: MDA-MB-231 breast
# SW-620 colon = test system: SW-620 colon
# HT29 colon = test system: HT29 colon
# MALME-3M melanoma = test system: MALME-3M melanoma
compound,measurement,setting,value
CC(C)(C)C(=O)OCCNc1nc(-c2ccccc2)nc2ccccc12,GI50,HOP-92 NSCLC,12.6 µM
same,TGI,HOP-92 NSCLC,29 µM
same,GI50,HCT-116 colon,11.5 µM
same,TGI,HCT-116 colon,23.7 µM
same,GI50,U251 CNS,11.5 µM
same,TGI,U251 CNS,23.6 µM
same,GI50,SK-MEL-28 melanoma,18.3 µM
same,TGI,SK-MEL-28 melanoma,40.1 µM
same,GI50,LOX IMVI melanoma,10.3 µM
same,TGI,LOX IMVI melanoma,22 µM
same,GI50,NCI-H226 lung,20.2 µM
same,TGI,NCI-H226 lung,67.1 µM
same,GI50,CAKI-1 renal,11.6 µM
same,TGI,CAKI-1 renal,23.8 µM
same,GI50,HCC-2998 colon,16.4 µM
same,TGI,HCC-2998 colon,29.9 µM
same,GI50,HS 578T breast,11.5 µM
same,TGI,HS 578T breast,25.6 µM
same,GI50,M14 melanoma,7.57 µM
same,TGI,M14 melanoma,20.5 µM
same,GI50,MCF7 breast,17.3 µM
same,TGI,MCF7 breast,43.2 µM
same,GI50,NCI/ADR-RES ovarian,16.6 µM
same,TGI,NCI/ADR-RES ovarian,51.6 µM
same,GI50,HCT-15 colon,12.3 µM
same,TGI,HCT-15 colon,24.8 µM
same,GI50,SF-295 CNS,10.7 µM
same,TGI,SF-295 CNS,22.5 µM
same,GI50,UACC-62 melanoma,14.5 µM
same,TGI,UACC-62 melanoma,27.5 µM
same,GI50,OVCAR-5 ovarian,14.6 µM
same,TGI,OVCAR-5 ovarian,27.8 µM
same,GI50,NCI-H522 lung,27.5 µM
same,TGI,NCI-H522 lung,> 100 µM
same,GI50,SN12C renal,15.1 µM
same,TGI,SN12C renal,28.4 µM
same,GI50,SK-OV-3 ovarian,17.7 µM
same,TGI,SK-OV-3 ovarian,38.9 µM
same,GI50,PC-3 prostate,15.6 µM
same,TGI,PC-3 prostate,32.6 µM
same,GI50,786-0 renal,3.4 µM
same,TGI,786-0 renal,19 µM
same,GI50,OVCAR-8 ovarian,13.5 µM
same,TGI,OVCAR-8 ovarian,42.8 µM
same,GI50,K-562 leukemia,2.11 µM
same,TGI,K-562 leukemia,10.9 µM
same,GI50,RPMI-8226 leukemia,3.7 µM
same,TGI,RPMI-8226 leukemia,25.7 µM
same,GI50,IGROV1 ovarian,29.5 µM
same,TGI,IGROV1 ovarian,> 100 µM
same,GI50,NCI-H23 lung,12.1 µM
same,TGI,NCI-H23 lung,24.5 µM
same,GI50,OVCAR-3 ovarian,3.68 µM
same,TGI,OVCAR-3 ovarian,19.3 µM
same,GI50,CCRF-CEM leukemia,12.7 µM
same,TGI,CCRF-CEM leukemia,35 µM
same,GI50,A549 NSCLC,16.8 µM
same,TGI,A549 NSCLC,39.5 µM
same,GI50,UO-31 renal,13.2 µM
same,TGI,UO-31 renal,36.1 µM
same,GI50,OVCAR-4 ovarian,23.3 µM
same,TGI,OVCAR-4 ovarian,73.1 µM
same,GI50,COLO 205 colon,16.2 µM
same,TGI,COLO 205 colon,37.9 µM
same,GI50,NCI-H460 lung,16.6 µM
same,TGI,NCI-H460 lung,34.7 µM
same,GI50,SF-268 CNS,16.8 µM
same,TGI,SF-268 CNS,35.7 µM
same,GI50,T-47D breast,22.5 µM
same,TGI,T-47D breast,93.3 µM
same,GI50,DU-145 prostate,13.3 µM
same,TGI,DU-145 prostate,26.1 µM
same,GI50,MOLT-4 leukemia,2.1 µM
same,TGI,MOLT-4 leukemia,19 µM
same,GI50,RXF 393 renal,15.4 µM
same,TGI,RXF 393 renal,32 µM
same,GI50,SK-MEL-2 melanoma,31.1 µM
same,TGI,SK-MEL-2 melanoma,> 100 µM
same,GI50,SNB-19 CNS,17.3 µM
same,TGI,SNB-19 CNS,34.9 µM
same,GI50,A498 renal,15.1 µM
same,TGI,A498 renal,29 µM
same,GI50,SK-MEL-5 melanoma,15.5 µM
same,TGI,SK-MEL-5 melanoma,28.8 µM
same,GI50,TK-10 renal,11 µM
same,TGI,TK-10 renal,23 µM
same,GI50,HOP-62 NSCLC,13 µM
same,TGI,HOP-62 NSCLC,25.6 µM
same,GI50,ACHN renal,13.6 µM
same,TGI,ACHN renal,26.5 µM
same,GI50,MDA-MB-435,15.7 µM
same,TGI,MDA-MB-435,29.1 µM
same,GI50,KM12 colon,3.94 µM
same,TGI,KM12 colon,17.4 µM
same,GI50,SR leukemia,5.44 µM
same,TGI,SR leukemia,61.5 µM
O=C1CSC2=NC3=C(CSC/C3=C\c3ccc(Cl)cc3)C(c3ccc(Cl)cc3)N12 (centres undefined),TGI,HOP-92 NSCLC,39.9 µM
same,TGI,HCT-116 colon,29 µM
same,TGI,HL-60(TB) leukemia,> 100 µM
same,TGI,EKVX NSCLC,> 100 µM
same,TGI,SK-MEL-28 melanoma,81.9 µM
same,TGI,LOX IMVI melanoma,28.7 µM
same,TGI,CAKI-1 renal,> 100 µM
same,TGI,HCC-2998 colon,89.2 µM
same,TGI,M14 melanoma,> 100 µM
same,TGI,MCF7 breast,87.2 µM
same,TGI,NCI/ADR-RES ovarian,> 100 µM
same,TGI,HCT-15 colon,80.2 µM
same,TGI,SF-295 CNS,47.6 µM
same,TGI,UACC-62 melanoma,> 100 µM
same,TGI,OVCAR-5 ovarian,> 100 µM
same,TGI,NCI-H522 lung,36.3 µM
same,TGI,SN12C renal,39.2 µM
same,TGI,SK-OV-3 ovarian,> 100 µM
same,TGI,PC-3 prostate,> 100 µM
same,TGI,OVCAR-8 ovarian,43.3 µM
same,TGI,K-562 leukemia,> 100 µM
same,TGI,RPMI-8226 leukemia,> 100 µM
same,TGI,IGROV1 ovarian,> 100 µM
same,TGI,NCI-H23 lung,> 100 µM
same,TGI,OVCAR-3 ovarian,67 µM
same,TGI,CCRF-CEM leukemia,> 100 µM
same,TGI,A549 NSCLC,> 100 µM
same,TGI,UO-31 renal,29.3 µM
same,TGI,OVCAR-4 ovarian,67.1 µM
same,TGI,COLO 205 colon,> 100 µM
same,TGI,NCI-H460 lung,> 100 µM
same,TGI,SF-268 CNS,> 100 µM
same,TGI,T-47D breast,> 100 µM
same,TGI,DU-145 prostate,> 100 µM
same,TGI,MOLT-4 leukemia,43.4 µM
same,TGI,SK-MEL-2 melanoma,52.3 µM
same,TGI,SNB-19 CNS,> 100 µM
same,TGI,UACC-257 melanoma,85.9 µM
same,TGI,SK-MEL-5 melanoma,29.3 µM
same,TGI,TK-10 renal,> 100 µM
same,TGI,ACHN renal,> 100 µM
same,TGI,MDA-MB-435,66 µM
same,TGI,KM12 colon,79.1 µM
same,TGI,SR leukemia,56.3 µM
same,TGI,MDA-MB-231 breast,> 100 µM
same,TGI,SW-620 colon,62.3 µM
same,TGI,HT29 colon,> 100 µM
same,TGI,MALME-3M melanoma,> 100 µM
